Measured values reported in ChEMBL document CHEMBL3885861, “Open TG-GATES”.

Species on record: Rattus norvegicus
Assay: Open TG-GATES - Regimen: Daily Repeat
Format: toxicity, organism-based, Sprague-Dawley
Design: regimen Daily Repeat, gender Male, age 6 weeks
Settings: in vivo, po, 0 mg/kg, route gavage, dose level Control; for APTT / Bas / Eos / Fbg / Hb / Ht / Lym / MCH / MCHC / MCV / Mono / Neu / PT / Plat / RBC / Ret / WBC: tissue Blood; for KIDNEY_L / KIDNEY_R / KIDNEY_TOTAL: tissue Kidney; for LIVER: tissue Liver; for A/G / ALP / ALT / AST / BUN / CRE / Ca / Cl / DBIL / GLC / IP / K / LDH / Na / PL / RALB / TBIL / TC / TG / TP / gamma-GTP: tissue Plasma

CN(C)[C@@H]1C(O)=C(C(N)=O)C(=O)[C@@]2(O)C(O)=C3C(=O)c4c(O)cccc4[C@@](C)(O)[C@H]3C[C@@H]12 [TETRACYCLINE] gave a TERMINAL_BW (72 h, time 3 day) of 188 g, an APTT (72 h, time 3 day) of 16 s and a Bas (72 h, time 3 day) of 0%. For the same molecule, the Eos (72 h, time 3 day) was 0.8%, the Fbg (72 h, time 3 day) was 221 mg/dL and the Hb (72 h, time 3 day) was 13.6 g/dL. For the same molecule, the Ht (72 h, time 3 day) was 41.2%, the Lym (72 h, time 3 day) was 82.4% and the MCH (72 h, time 3 day) was 21.9 pg. For the same molecule, the MCHC (72 h, time 3 day) was 33.1%, the MCV (72 h, time 3 day) was 66 fL and the Mono (72 h, time 3 day) was 6.8%. For the same molecule, the Neu (72 h, time 3 day) was 10%, the PT (72 h, time 3 day) was 12.3 s and the Plat (72 h, time 3 day) was 96.9 x10_4/uL. The RBC (72 h, time 3 day) was 625 x10_4/ul, the Ret (72 h, time 3 day) was 8.2% and the WBC (72 h, time 3 day) was 111.7 x10_2/uL. The KIDNEY_L (72 h, time 3 day) was 0.9 g, the KIDNEY_R (72 h, time 3 day) was 0.9 g and the KIDNEY_TOTAL (72 h, time 3 day) was 1.7 g. For the same molecule, the LIVER (72 h, time 3 day) was 9 g, the A/G (72 h, time 3 day) was 2.2 and the ALP (72 h, time 3 day) was 921.6 IU/L. The ALT (72 h, time 3 day) was 43.6 IU/L, the AST (72 h, time 3 day) was 69 IU/L and the BUN (72 h, time 3 day) was 17.6 mg/dL. For the same molecule, the CRE (72 h, time 3 day) was 0.6 mg/dL, the Ca (72 h, time 3 day) was 11.2 mg/dL and the Cl (72 h, time 3 day) was 105.4 meq/L. The DBIL (72 h, time 3 day) was 0.008 mg/dL, the GLC (72 h, time 3 day) was 183 mg/dL and the IP (72 h, time 3 day) was 8.2 mg/dL. It also gave a K (72 h, time 3 day) of 4.7 meq/L, an LDH (72 h, time 3 day) of 99.8 IU/L and a Na (72 h, time 3 day) of 140.2 meq/L. For the same molecule, the PL (72 h, time 3 day) was 150.2 mg/dL, the RALB (72 h, time 3 day) was 4 g/dL and the TBIL (72 h, time 3 day) was 0.3 mg/dL. For the same molecule, the TC (72 h, time 3 day) was 83.2 mg/dL, the TG (72 h, time 3 day) was 80.2 mg/dL and the TP (72 h, time 3 day) was 5.8 g/dL. The gamma-GTP (72 h, time 3 day) was 1.4 IU/L, the TERMINAL_BW ([…], time 7 day) was 228 g and the TERMINAL_BW ([…], time 14 day) was 287.8 g. The TERMINAL_BW ([…], time 28 day) was 360.5 g, the APTT ([…], time 7 day) was 18.8 s and the Bas ([…], time 7 day) was 0%. The Eos ([…], time 7 day) was 1%, the Fbg ([…], time 7 day) was 226.7 mg/dL and the Hb ([…], time 7 day) was 13.6 g/dL. It also gave a Ht ([…], time 7 day) of 40.4%, a Lym ([…], time 7 day) of 80.8% and an MCH ([…], time 7 day) of 21.6 pg. The MCHC ([…], time 7 day) was 33.5%, the MCV ([…], time 7 day) was 64.3 fL and the Mono ([…], time 7 day) was 6.2%. For the same molecule, the Neu ([…], time 7 day) was 12%, the PT ([…], time 7 day) was 12.1 s and the Plat ([…], time 7 day) was 112.5 x10_4/uL. The RBC ([…], time 7 day) was 629.6 x10_4/ul, the Ret ([…], time 7 day) was 6.6% and the WBC ([…], time 7 day) was 142 x10_2/uL. The APTT ([…], time 14 day) was 17 s, the Bas ([…], time 14 day) was 0% and the Eos ([…], time 14 day) was 0.6%. The Fbg ([…], time 14 day) was 238.4 mg/dL, the Hb ([…], time 14 day) was 13.9 g/dL and the Ht ([…], time 14 day) was 41.6%. The Lym ([…], time 14 day) was 80.4%, the MCH ([…], time 14 day) was 20.9 pg and the MCHC ([…], time 14 day) was 33.5%. The MCV ([…], time 14 day) was 62.3 fL, the Mono ([…], time 14 day) was 5.6% and the Neu ([…], time 14 day) was 13.6%. For the same molecule, the PT ([…], time 14 day) was 11.7 s, the Plat ([…], time 14 day) was 109.2 x10_4/uL and the RBC ([…], time 14 day) was 668.4 x10_4/ul. It also gave a Ret ([…], time 14 day) of 5.7%, a WBC ([…], time 14 day) of 131 x10_2/uL and an APTT ([…], time 28 day) of 17.8 s. The Bas ([…], time 28 day) was 0%, the Eos ([…], time 28 day) was 1.4% and the Fbg ([…], time 28 day) was 235.8 mg/dL. It also gave a Hb ([…], time 28 day) of 14.8 g/dL, a Ht ([…], time 28 day) of 43.9% and a Lym ([…], time 28 day) of 83%. The MCH ([…], time 28 day) was 19.6 pg, the MCHC ([…], time 28 day) was 33.6% and the MCV ([…], time 28 day) was 58.3 fL. It also gave a Mono ([…], time 28 day) of 4.4%, a Neu ([…], time 28 day) of 11.6% and a PT ([…], time 28 day) of 11.8 s. It also gave a Plat ([…], time 28 day) of 100.7 x10_4/uL, an RBC ([…], time 28 day) of 753.4 x10_4/ul and a Ret ([…], time 28 day) of 2.9%. For the same molecule, the WBC ([…], time 28 day) was 164.6 x10_2/uL, the KIDNEY_L ([…], time 7 day) was 1 g and the KIDNEY_R ([…], time 7 day) was 1 g. For the same molecule, the KIDNEY_TOTAL ([…], time 7 day) was 2 g, the KIDNEY_L ([…], time 14 day) was 1.2 g and the KIDNEY_R ([…], time 14 day) was 1.2 g. For the same molecule, the KIDNEY_TOTAL ([…], time 14 day) was 2.3 g, the KIDNEY_L ([…], time 28 day) was 1.3 g and the KIDNEY_R ([…], time 28 day) was 1.3 g. The KIDNEY_TOTAL ([…], time 28 day) was 2.7 g, the LIVER ([…], time 7 day) was 10.9 g and the LIVER ([…], time 14 day) was 13.5 g. For the same molecule, the LIVER ([…], time 28 day) was 16 g, the A/G ([…], time 7 day) was 2.1 and the ALP ([…], time 7 day) was 1017 IU/L. It also gave an ALT ([…], time 7 day) of 38.2 IU/L, an AST ([…], time 7 day) of 63.2 IU/L and a BUN ([…], time 7 day) of 19 mg/dL. The CRE ([…], time 7 day) was 0.6 mg/dL, the Ca ([…], time 7 day) was 11 mg/dL and the Cl ([…], time 7 day) was 106.4 meq/L. The DBIL ([…], time 7 day) was 0.006 mg/dL, the GLC ([…], time 7 day) was 184.4 mg/dL and the IP ([…], time 7 day) was 8.1 mg/dL. It also gave a K ([…], time 7 day) of 6.3 meq/L, an LDH ([…], time 7 day) of 107.6 IU/L and a Na ([…], time 7 day) of 139 meq/L. For the same molecule, the PL ([…], time 7 day) was 157.8 mg/dL, the RALB ([…], time 7 day) was 3.9 g/dL and the TBIL ([…], time 7 day) was 0.3 mg/dL. It also gave a TC ([…], time 7 day) of 83.4 mg/dL, a TG ([…], time 7 day) of 90.8 mg/dL and a TP ([…], time 7 day) of 5.7 g/dL. The gamma-GTP ([…], time 7 day) was 1 IU/L, the A/G ([…], time 14 day) was 1.8 and the ALP ([…], time 14 day) was 903 IU/L. It also gave an ALT ([…], time 14 day) of 30.6 IU/L, an AST ([…], time 14 day) of 67.4 IU/L and a BUN ([…], time 14 day) of 18.6 mg/dL. The CRE ([…], time 14 day) was 0.5 mg/dL, the Ca ([…], time 14 day) was 11.1 mg/dL and the Cl ([…], time 14 day) was 103.2 meq/L. For the same molecule, the DBIL ([…], time 14 day) was 0.01 mg/dL, the GLC ([…], time 14 day) was 175.2 mg/dL and the IP ([…], time 14 day) was 7.9 mg/dL. It also gave a K ([…], time 14 day) of 4.7 meq/L, an LDH ([…], time 14 day) of 100.6 IU/L and a Na ([…], time 14 day) of 141 meq/L. The PL ([…], time 14 day) was 154.6 mg/dL, the RALB ([…], time 14 day) was 4 g/dL and the TBIL ([…], time 14 day) was 0.3 mg/dL. For the same molecule, the TC ([…], time 14 day) was 72.2 mg/dL, the TG ([…], time 14 day) was 134.8 mg/dL and the TP ([…], time 14 day) was 6.2 g/dL. It also gave a gamma-GTP ([…], time 14 day) of 1.6 IU/L, an A/G ([…], time 28 day) of 1.7 and an ALP ([…], time 28 day) of 807.8 IU/L. It also gave an ALT ([…], time 28 day) of 31.2 IU/L, an AST ([…], time 28 day) of 58.2 IU/L and a BUN ([…], time 28 day) of 20.8 mg/dL. For the same molecule, the CRE ([…], time 28 day) was 0.6 mg/dL, the Ca ([…], time 28 day) was 10.9 mg/dL and the Cl ([…], time 28 day) was 106.2 meq/L. For the same molecule, the DBIL ([…], time 28 day) was 0.016 mg/dL, the GLC ([…], time 28 day) was 175.2 mg/dL and the IP ([…], time 28 day) was 7.2 mg/dL. It also gave a K ([…], time 28 day) of 4.6 meq/L, an LDH ([…], time 28 day) of 91.4 IU/L and a Na ([…], time 28 day) of 140 meq/L. For the same molecule, the PL ([…], time 28 day) was 164 mg/dL, the RALB ([…], time 28 day) was 3.8 g/dL and the TBIL ([…], time 28 day) was 0.3 mg/dL. For the same molecule, the TC ([…], time 28 day) was 78.2 mg/dL, the TG ([…], time 28 day) was 154.8 mg/dL and the TP ([…], time 28 day) was 6.1 g/dL. The gamma-GTP ([…], time 28 day) was 1 IU/L.
